This is an account of results in paper PMC6437697 (Journal of Medicinal Chemistry, 2019).

What all share (experiment): KINOMEscan
Common to all, as to format: binding
Holding throughout (conditions): read-out: % control activity remaining

For experiment [1], the target named is T1, CDK4-cyclinD1 (Homo sapiens, UniProt P11802).
T1 construct: purchased Eurofins DiscoverX KINOMEscan

Experiment [2] has as its target T2, ERBB2 (Homo sapiens, UniProt P04626).
T2 construct: purchased Eurofins DiscoverX KINOMEscan

Experiment [3] addresses T3, IRAK3 (Homo sapiens, UniProt Q9Y616).
T3 construct: purchased Eurofins DiscoverX KINOMEscan
T3 sequence (Q9Y616 1-596): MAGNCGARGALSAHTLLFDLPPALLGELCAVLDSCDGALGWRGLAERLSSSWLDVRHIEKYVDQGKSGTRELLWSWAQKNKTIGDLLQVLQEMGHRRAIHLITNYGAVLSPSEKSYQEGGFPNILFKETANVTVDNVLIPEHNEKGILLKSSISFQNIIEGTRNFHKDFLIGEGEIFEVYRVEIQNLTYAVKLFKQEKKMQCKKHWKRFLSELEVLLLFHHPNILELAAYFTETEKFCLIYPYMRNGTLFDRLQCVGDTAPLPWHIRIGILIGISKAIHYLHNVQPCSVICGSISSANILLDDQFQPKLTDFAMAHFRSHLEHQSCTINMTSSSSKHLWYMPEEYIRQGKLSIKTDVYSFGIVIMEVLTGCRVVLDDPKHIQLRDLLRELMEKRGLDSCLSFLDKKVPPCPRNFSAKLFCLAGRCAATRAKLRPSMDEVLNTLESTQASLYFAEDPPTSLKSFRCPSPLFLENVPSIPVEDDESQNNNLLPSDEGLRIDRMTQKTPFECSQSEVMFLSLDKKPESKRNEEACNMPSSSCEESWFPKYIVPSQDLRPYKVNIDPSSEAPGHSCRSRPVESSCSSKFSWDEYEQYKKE

Experiment [4] has as its target T4, PIK3C2G (Homo sapiens, UniProt O75747).
T4 construct: purchased Eurofins DiscoverX KINOMEscan
T4 sequence (O75747 1-1486): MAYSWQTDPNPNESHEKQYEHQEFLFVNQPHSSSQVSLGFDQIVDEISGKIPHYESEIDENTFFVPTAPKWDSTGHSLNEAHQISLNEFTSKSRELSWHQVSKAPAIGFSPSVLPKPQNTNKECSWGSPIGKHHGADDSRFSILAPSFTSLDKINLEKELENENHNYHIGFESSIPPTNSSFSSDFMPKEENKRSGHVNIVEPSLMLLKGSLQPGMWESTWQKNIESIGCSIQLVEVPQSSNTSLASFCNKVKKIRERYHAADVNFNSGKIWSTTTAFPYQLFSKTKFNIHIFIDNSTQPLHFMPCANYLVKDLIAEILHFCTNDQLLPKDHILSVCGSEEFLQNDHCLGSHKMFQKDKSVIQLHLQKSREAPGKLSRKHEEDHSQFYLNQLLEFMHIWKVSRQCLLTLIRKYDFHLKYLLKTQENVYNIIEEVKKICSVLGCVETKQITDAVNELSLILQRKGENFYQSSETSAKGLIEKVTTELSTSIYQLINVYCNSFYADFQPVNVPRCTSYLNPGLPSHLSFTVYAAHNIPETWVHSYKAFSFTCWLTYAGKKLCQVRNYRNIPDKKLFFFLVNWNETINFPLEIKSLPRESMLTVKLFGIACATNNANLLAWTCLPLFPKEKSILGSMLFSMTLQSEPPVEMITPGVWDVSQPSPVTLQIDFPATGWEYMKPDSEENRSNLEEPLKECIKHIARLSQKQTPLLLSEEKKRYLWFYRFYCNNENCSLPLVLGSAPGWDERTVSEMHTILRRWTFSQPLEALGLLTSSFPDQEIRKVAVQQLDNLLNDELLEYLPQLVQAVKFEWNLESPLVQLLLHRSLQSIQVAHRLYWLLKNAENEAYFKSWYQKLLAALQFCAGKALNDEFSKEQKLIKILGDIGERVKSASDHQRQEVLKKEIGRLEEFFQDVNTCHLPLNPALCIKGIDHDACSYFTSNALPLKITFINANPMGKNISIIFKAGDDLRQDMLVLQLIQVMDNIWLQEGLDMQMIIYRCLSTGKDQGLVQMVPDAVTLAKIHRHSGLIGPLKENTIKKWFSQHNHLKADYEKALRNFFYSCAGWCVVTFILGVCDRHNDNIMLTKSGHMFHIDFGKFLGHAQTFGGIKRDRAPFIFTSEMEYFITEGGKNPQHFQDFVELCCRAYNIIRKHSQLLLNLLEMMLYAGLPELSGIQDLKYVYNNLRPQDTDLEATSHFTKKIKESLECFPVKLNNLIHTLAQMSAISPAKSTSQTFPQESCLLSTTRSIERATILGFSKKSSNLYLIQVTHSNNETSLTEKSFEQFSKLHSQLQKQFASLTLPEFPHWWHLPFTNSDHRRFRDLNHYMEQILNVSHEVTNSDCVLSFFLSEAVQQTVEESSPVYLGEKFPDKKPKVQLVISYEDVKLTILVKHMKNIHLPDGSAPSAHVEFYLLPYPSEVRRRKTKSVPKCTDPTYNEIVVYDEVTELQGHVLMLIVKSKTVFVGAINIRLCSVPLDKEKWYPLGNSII

Experiment [5] addresses T5, NIM1 (Homo sapiens, UniProt Q8IY84).
T5 construct: purchased Eurofins DiscoverX KINOMEscan

Experiment [6] addresses T6, CAMKK2 (Homo sapiens, UniProt Q96RR4).
T6 construct: purchased Eurofins DiscoverX KINOMEscan

Experiment [7] deals with T7, NEK6 (Homo sapiens, UniProt Q9HC98).
T7 construct: purchased Eurofins DiscoverX KINOMEscan
T7 sequence (Q9HC98 whole entry): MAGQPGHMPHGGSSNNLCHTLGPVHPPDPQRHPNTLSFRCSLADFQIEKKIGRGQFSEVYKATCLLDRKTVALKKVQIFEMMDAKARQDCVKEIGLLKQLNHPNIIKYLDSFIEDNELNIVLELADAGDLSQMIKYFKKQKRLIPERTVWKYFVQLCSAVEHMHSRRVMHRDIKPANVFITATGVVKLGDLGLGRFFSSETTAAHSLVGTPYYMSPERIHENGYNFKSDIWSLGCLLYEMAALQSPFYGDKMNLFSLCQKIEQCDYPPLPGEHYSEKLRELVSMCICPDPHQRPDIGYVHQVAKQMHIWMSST

T5 sequence (Q8IY84 whole entry): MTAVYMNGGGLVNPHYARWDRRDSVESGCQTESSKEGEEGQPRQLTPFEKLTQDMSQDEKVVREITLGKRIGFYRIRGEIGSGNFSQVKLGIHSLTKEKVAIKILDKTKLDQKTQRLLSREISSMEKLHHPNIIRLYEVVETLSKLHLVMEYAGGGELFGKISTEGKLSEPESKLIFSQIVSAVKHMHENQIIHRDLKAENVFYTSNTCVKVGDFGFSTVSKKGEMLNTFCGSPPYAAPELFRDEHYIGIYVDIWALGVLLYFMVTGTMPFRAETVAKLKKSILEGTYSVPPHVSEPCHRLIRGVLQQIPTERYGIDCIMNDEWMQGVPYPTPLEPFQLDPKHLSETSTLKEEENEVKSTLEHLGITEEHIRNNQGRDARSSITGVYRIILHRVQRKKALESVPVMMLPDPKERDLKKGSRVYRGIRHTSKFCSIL
T2 sequence (P04626 23-1255 limits assumed): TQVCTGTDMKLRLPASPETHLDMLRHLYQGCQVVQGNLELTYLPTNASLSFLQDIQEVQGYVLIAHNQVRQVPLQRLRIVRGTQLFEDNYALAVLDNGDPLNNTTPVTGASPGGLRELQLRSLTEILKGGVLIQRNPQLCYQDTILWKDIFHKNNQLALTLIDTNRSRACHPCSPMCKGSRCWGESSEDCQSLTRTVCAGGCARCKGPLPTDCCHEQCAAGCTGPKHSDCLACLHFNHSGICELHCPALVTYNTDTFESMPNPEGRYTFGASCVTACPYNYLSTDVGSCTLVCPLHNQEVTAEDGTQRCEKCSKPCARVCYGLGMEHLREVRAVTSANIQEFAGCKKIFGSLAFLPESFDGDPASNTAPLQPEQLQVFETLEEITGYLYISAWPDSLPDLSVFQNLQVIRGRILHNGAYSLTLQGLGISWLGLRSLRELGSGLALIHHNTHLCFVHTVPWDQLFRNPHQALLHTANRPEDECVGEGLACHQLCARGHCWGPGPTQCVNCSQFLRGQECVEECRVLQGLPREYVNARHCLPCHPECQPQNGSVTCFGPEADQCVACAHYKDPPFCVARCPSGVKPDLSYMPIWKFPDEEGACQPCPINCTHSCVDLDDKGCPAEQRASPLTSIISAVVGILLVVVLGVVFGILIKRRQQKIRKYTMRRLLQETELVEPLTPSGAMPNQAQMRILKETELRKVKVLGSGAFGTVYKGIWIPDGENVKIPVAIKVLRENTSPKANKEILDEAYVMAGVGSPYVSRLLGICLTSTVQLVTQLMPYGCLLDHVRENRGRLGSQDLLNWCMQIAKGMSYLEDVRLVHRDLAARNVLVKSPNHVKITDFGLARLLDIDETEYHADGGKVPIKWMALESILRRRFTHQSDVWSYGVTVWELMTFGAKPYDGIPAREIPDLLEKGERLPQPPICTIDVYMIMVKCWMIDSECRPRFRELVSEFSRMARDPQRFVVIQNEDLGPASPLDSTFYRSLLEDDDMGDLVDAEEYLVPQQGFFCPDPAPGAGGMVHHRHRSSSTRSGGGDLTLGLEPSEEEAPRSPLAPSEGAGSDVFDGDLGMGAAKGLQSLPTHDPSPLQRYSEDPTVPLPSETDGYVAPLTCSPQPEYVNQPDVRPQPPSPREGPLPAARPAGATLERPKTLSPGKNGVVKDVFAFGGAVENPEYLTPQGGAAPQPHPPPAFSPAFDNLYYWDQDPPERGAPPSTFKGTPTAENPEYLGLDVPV
T6 sequence (Q96RR4 whole entry): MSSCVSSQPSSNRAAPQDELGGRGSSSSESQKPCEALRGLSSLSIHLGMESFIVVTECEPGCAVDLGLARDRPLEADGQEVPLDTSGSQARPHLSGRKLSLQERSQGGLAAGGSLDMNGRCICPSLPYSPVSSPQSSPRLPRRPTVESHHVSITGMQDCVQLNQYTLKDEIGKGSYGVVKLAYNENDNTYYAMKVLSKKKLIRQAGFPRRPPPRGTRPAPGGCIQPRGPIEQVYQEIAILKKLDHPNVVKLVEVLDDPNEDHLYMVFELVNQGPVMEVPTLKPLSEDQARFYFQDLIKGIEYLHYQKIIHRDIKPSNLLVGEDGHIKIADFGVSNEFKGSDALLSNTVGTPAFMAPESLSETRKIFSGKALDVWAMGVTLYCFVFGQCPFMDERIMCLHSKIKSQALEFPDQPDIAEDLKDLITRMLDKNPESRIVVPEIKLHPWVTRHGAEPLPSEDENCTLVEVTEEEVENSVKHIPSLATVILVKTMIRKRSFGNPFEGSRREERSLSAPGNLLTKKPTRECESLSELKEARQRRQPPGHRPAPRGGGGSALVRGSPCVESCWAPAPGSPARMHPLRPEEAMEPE
T1 sequence (P11802 whole entry): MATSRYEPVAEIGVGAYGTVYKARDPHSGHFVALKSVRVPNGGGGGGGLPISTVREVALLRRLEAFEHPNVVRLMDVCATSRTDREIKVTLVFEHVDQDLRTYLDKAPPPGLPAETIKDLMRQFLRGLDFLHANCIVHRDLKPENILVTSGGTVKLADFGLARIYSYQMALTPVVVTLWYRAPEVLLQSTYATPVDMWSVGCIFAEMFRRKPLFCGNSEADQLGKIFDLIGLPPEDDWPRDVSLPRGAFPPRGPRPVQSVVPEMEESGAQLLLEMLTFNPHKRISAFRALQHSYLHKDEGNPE
T1 sequence (P24385 whole entry partner): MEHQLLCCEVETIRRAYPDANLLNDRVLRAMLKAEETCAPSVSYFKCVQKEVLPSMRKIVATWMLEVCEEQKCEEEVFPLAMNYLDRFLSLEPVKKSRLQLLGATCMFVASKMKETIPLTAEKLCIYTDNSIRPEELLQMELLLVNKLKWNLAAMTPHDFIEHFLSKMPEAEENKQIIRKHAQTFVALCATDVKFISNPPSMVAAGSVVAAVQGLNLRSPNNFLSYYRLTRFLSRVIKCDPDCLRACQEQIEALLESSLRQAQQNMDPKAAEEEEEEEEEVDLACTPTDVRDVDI

In the case of `Clc1cc(NCC2CC2)c2ncc(-c3ccc4[nH]ncc4c3)n2n1` [compound 2, 6-Chloro-N-(cyclopropylmethyl)-3-(1H-indazol-5-yl)imidazo[1,2-b]pyridazin-8-amine], the remaining binding at 1 µM turned out to be 88% in experiment [1]; 100% in experiment [2]; 100% in experiment [3]; 91% in experiment [4]; 97% in experiment [5]; 99% in experiment [6]. Further, in experiment [7], the remaining binding at 1 µM is 99%.
Consider `O=C(CN1CCOCC1)N[C@H]1CC[C@H](Nc2cc(Cl)nn3c(-c4ccc5[nH]ncc5c4)cnc23)CC1` [compound 26], for which the remaining binding at 1 µM in experiment [1] amounted to 93%; in experiment [2], 97%; in experiment [3], 49%; in experiment [4], 80%; in experiment [5], 91%; in experiment [6], 42%. Moreover, the remaining binding at 1 µM in experiment [7] stood at 100%.
On to `CN1CCC(CNc2cc(Cl)nn3c(-c4cc5nc(Nc6ccccc6)[nH]c5cc4F)cnc23)CC1` [compound 31, 6-Chloro-3-(6-fluoro-2-(phenylamino)-1H-benzo[d]imidazol-5-yl)-N-((1-methylpiperidin-4-yl)methyl)imidazo[1,2-b]pyridazin-8-amine], for which the remaining binding at 1 µM in experiment [1] worked out at 87%; in experiment [2], 84%; in experiment [3] it was 95%; in experiment [4] it was 82%; in experiment [5], 77%; in experiment [6] it was 100%. In addition, the remaining binding at 1 µM in experiment [7] amounted to 96%.
